The results in this text go back to patent US7393640B2, “Terminal-phosphate-labeled nucleotides with new linkers” (GE Healthcare Bio-Sciences Corp., priority 2003, dated 2008).

For assay [1], the system named is cloned DNA polymerase I genetically engineered to eliminate 3′-5′ exonuclease activity, 5′-3′ exonuclease activity and discrimination against …. Description: Template-directed incorporation of gamma phosphate-labeled ddNTP with shrimp alkaline phosphatase, fluorescence read-out. Type of assay: biochemical. As to conditions: 2 μM nucleotide, 5 mM MgCl2, 0.25 mM MnCl2, shrimp alkaline phosphatase. As to the method: Reactions were assembled at room temperature (23° C.) using the dideoxynucleotide of Example (1).
Referring now to FIG. 1, for template 1 (SEQ ID NO: 2) in the present example, DNA polymerase would be expected to extend the primer with labeled ddGTP. Similarly, for template 2 (SEQ ID NO: 3) in FIG. 1, DNA polymerase would be expected to extend the primer with ddATP, but not with labeled ddGTP.
(§1) Reaction conditions: A 70 μl reaction containing 25 mM Tris, pH 8.0, 5% glycerol 5 mM MgCl2, 0.5 mM beta-mercaptoethanol, 0.01% tween-20, 0.25 units shrimp alkaline phosphatase, 100 nM primer annealed to template (the next template nucleotide is either dCMP or dTMP, as indicated), and 2 μM ddGTP-CF3-Coumarin was assembled in a quartz fluorescence ultra-microcuvet in a LS-55 Luminescence Spectrometer (Perkin Elmer), operated in time drive mode. Excitation and emission wavelengths are 390 nm and 500 nm respectively. Slit widths were 5 nm for excitation slits, 15 nm for emission slits. The reaction was initiated by the addition of 0.35 μl (11 units) of a cloned DNA polymerase I genetically engineered to eliminate 3′-5′ exonuclease activity, 5′-3′ exonuclease activity and discrimination against dideoxynucleotides and 0.25 mM MnCl2.
Reactions were assembled at room temperature (23° C.) using the dideoxynucleotide of Example (2).
Referring now to FIG. 2, for template 2 (SEQ ID NO: 3) in the present example, DNA polymerase would be expected to extend the primer with labeled ddATP. Similarly, for template 1 (SEQ ID NO: 2) in FIG. 2, DNA polymerase would be expected to extend the primer with ddGTP, but not with labeled ddATP.
as §1, with “template,” for “template (the next template nucleotide is either dCMP or dTMP, as indicated),”, “ddATP-CN-Coumarin” for “ddGTP-CF3-Coumarin”, “410” for “390”, “450” for “500”

The subject of another assay is various polymerases. Description: Effect of MnCl2 on incorporation of terminal-phosphate labeled nucleotide on oligo dT/poly dA. As to conditions: 10 uM nucleotide, 60° C. It is filed as biochemical. As to the method:
Oligo dT (35mer) was annealed with poly dA by mixing equal volumes of each at 20 uM conc, and incubating at 80° C. for 4 min and instant cooling on ice. 1 ul of this solution was mixed into a 20 ul reaction containing 25 mM Hepes, pH 8.0, 0.01% Tween-20, 10 uM dT4P-DDAO, 0.005 u/ul BAP, a polymerase at concentrations shown in FIG. 7 and various concentrations of MnCl2—and MgCl2.

In assay [2] the test system is Thermo Sequenase I DNA polymerase. Description: Relative incorporation of phosphate labeled versus base labeled nucleotides in magnesium or manganese buffer. As to conditions: 5 mM MnCl2 vs 5 mM MgCl2, 1 μM nucleotide, 50 degrees C., 10 minutes. It is filed as biochemical. As to the method: Reactions (10 μl, 50 degrees C., 10 minutes) contained 1× reaction buffer (25 mM HEPES 8.5, 0.01% tween-20), 3 μg activated DNA (Chromosomal DNA), 5 mM either MnCl2 (circles) or MgCl2 (squares), 1 μM either FAM-TAM-11-ddTTP (dashed lines) or ddT4P-DDAO (solid lines), with a serial 4 fold dilution of Thermo Sequenase I™ DNA polymerase from 10 units per reaction down to 0.01 units per reaction. Results (FIG. 3) were plotted out both on a linear scale and logarithmic scale to show both linearity with enzyme and relative incorporation efficiency.

The test system of another assay is Phi 29 exo-polymerase. As to conditions: 0.7 mM MnCl2 only, 25 uM nucleotide, template SEQ ID NO: 4 (FIG. 6).
Setting [3] is: Primer: Template 1 (SEQ ID NO: 2), next template nucleotide dC.
Where [4] appears, read: Primer: Template 2 (SEQ ID NO: 3), next template nucleotide dT.

Where two headings read alike, the source gives them in different places.

Chain of Phi 29 exo-polymerase (P03680 190-575 limits assumed): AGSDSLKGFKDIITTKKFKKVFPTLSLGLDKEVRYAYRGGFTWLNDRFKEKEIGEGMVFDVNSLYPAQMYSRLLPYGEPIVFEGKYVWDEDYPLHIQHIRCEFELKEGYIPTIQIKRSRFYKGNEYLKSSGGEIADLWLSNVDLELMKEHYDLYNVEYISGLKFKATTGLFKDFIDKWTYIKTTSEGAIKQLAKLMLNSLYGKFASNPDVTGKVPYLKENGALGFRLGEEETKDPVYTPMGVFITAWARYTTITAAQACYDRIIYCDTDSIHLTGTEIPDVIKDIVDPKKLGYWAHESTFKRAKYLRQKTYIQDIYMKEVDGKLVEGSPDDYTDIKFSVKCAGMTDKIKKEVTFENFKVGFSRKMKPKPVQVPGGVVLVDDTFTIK
Method for Phi 29 exo-polymerase: Using the same primer as in example 9 and template (SEQ ID NO: 4), incorporation of dCTP-DAH-ROX at various times after the reaction was initiated, was investigated. Assay conditions were as follows: Total reaction volume: 30 ul containing 100 nM primer/template, 100 nM Phi 29 exo-polymerase, 50 mM Tris pH 7.5, 75 mM KCl, 0.7 mM MnCl2, 0.1 mM DTT, 0.3 mg/ml BSA. Reaction was initiated by addition of ROX-dCTP to a conc. of 25 uM.

`N#Cc1cc2ccc(OP(=O)(O)OP(=O)(O)OP(=O)(O)OC[C@@H]3CC[C@H](n4cnc5c(N)ncnc54)O3)cc2oc1=O` [gamma labeled ddATP, γ-(3-cyanocoumarinyl)dideoxyadenosine-5′-triphosphate]: the dye emission result in assay [1] (setting [3]) was “No detectable dye emission”; in assay [1] (setting [4]) it was “dye emission was detected”.

On to `Cc1cn([C@H]2C[C@H](O)[C@@H](COP(=O)(O)OP(=O)(O)OP(=O)(O)OP(=O)(O)Oc3ccc4c(c3)C(C)(C)C3=C(Cl)C(=O)C(Cl)=CC3=N4)O2)c(=O)[nH]c1=O` [dT4P-DDAO, 2′-Deoxythymidine-5′-(δ-7-(9H-(1,3-dichloro-9,9-dimethylacridin-2-one)))tetraphosphate], for which the “rate of incorporation in the absence of MnCl2” value in the assay with various polymerases (15 or 30 minutes (FIG. 7)) is “extremely slow”. In the assay on various polymerases (15 or 30 minutes, all the polymerases tested (FIG. 7)), the “effect of MnCl2, alone or in the presence of MgCl2, on the rate of incorporation” value is on record as “major positive impact on the rate of incorporation”.

Consider `Cc1cn([C@H]2CC[C@@H](COP(=O)(O)OP(=O)(O)OP(=O)(O)OP(=O)(O)Oc3ccc4c(c3)C(C)(C)C3=C(Cl)C(=O)C(Cl)=CC3=N4)O2)c(=O)[nH]c1=O` [ddT4P-DDAO, δ-9H(1,3-dichloro-9,9-dimethylacridin-2-one-7-yl)-dideoxythymidine-5′-tetraphosphate], for which, in assay [2], the “increase in incorporation efficiency in the manganese buffer relative to the magnesium buffer” value is recorded as 28 fold.

Turning to “ROX-amidoheptyl-gamma-amido-deoxycytidine-triphosphate [dCTP-DAH-ROX]”, the misincorporation entry is recorded as “no misincorporation takes place” in the assay on Phi 29 exo-polymerase and “No misincorporation was observed” in the assay on Phi 29 exo-polymerase (listed as dCTP-γ-ROX).

Regarding `Nc1nc2c(ncn2[C@H]2CC[C@@H](COP(=O)(O)OP(=O)(O)OP(=O)(O)Oc3ccc4c(C(F)(F)F)cc(=O)oc4c3)O2)c(=O)[nH]1` [gamma labeled ddGTP, γ-(4-trifluoromethylcoumarinyl)dideoxyguanosine-5′-triphosphate], the dye emission result in assay [1] (setting [3]) is reported as “dye emission was detected”; in assay [1] (setting [4]) it was “No detectable dye emission”.
